Results taken from patent US20250092033A1, “HETEROAROMATIC NITROGEN-OXIDE COMPOUND, PREPARATION METHOD THEREFOR, AND USE THEREOF” (BEIJING AVISTONE BIOTECHNOLOGY CO., LTD., priority 2021, published 2025).

Columns and labels:
MET F1200I = target: T1, MET F1200I (Homo sapiens, UniProt P08581, F1200I); assay: Kinase inhibition experiment (HTRF KinEASE-TK kit), mutant MET F1200I; type: biochemical; conditions: 10 concentrations, 3-fold dilution
T1 construct: purchased Signalchem M52-12GG/Y767-2
Experimental: (§1) The activity of the compounds was determined by detecting the residual amount of ATP after reacting with wild-type or mutant MET protein kinase by using an HTRF KinEASE-TK kit. […]
(§2) The compounds were determined on the selected kinase, the solvent control was set and a total of 10 concentrations were detected, diluted 3-fold, 2 replicates per concentration.
(§3) 1 volume of 5× kinase reaction buffer and 4 volumes of water; 5 mM MgCl2; 1 mM DTT; 1 mM MnCl2; or 2500 nm SEB.
(§4) 1) 10 nl or 4 μlof the diluted compound was transferred to each well of the reaction plate (784075 or 264706, Greiner or Thermo) with a pipette, the reaction plate was sealed with a sealing plate, and centrifuged at 1000 for 1 minute.
(§5) 2) 2× MET was prepared from 1× enzyme reaction buffer, 5 μl or 2 μl kinase was added to each well of the reaction plate, the reaction plate was sealed with a sealing plate, centrifuged at 1000 g for 30 seconds and incubated at room temperature for 10 min.
(§6) 3) a mixed solution of 2× TK-substrate-biotin and ATP were prepared from 1× enzyme reaction buffer solution, 5 μl or 2 μl TK-substrate-biotin/ATP of the mixed solution was added into a reaction plate, the reaction plate was sealed with a sealing plate, centrifuged at 1000 g for 30 seconds and reacted for 50 minutes or 10 minutes at room temperature.
(§7) 4) a mixed solution of 4× or 2× Sa-XL 665 and TK-antibody-Cryptate were prepared from HTRF detection buffer, 5 or 10 μl of the mixed solution of Sa-XL 665 and TK-antibody-Cryptate was added into each well, centrifuged at 1000 g for 30 seconds, and reacted at room temperature for 1 h.
(§8) 5) the fluorescence signals at 615 nm (cryptate) and 665 nm (XL665) were read with Envision 2104 or TECAN.
(§9) The data was analyzed using GraphPad Prism 6.0 or 7 software, and the dose-response curve was fitted with nonlinear S-curve regression, and the IC50 value was calculated therefrom.
(§10) Enzyme Inhibition Percent (%)=100-(Signalmpd-SignalAve_PC)/(SignalAve_VC-SignalAve_PC)×100

[1] = target: T2, wild type (WT) MET kinase (Homo sapiens, UniProt P08581); assay: Kinase inhibition experiment (HTRF KinEASE-TK kit), wild-type MET; type: biochemical; conditions: 10 concentrations, 3-fold dilution
T2 construct: purchased Carna 08-151
Experimental: as §1, §2, §3, §4, §5, §6, §7, §8, §9, §10

H1993 cell line = assay: Cell proliferation inhibition experiment (CellTiter-Glo), H1993; type: cell-based; conditions: Homo sapiens, NCI-H1993, CTG, 72 h
Experimental: (§11) CellTiter-Glo™ live cell detection kit adopts luciferase as the detection substance, and the luciferase needs the participation of ATP in the luminescence process. CellTiter-Glo™ reagent was added into the cell culture medium and the luminescence value was measured. The light signal is in direct proportion to the amount of ATP in the system, ATP is in direct correlation with number of living cells. Therefore, the proliferation of cells can be detected by detecting the content of ATP with CellTiter-Glo kit.
(§12) In the experiment, the proliferation inhibition effect of the prepared compounds on tumor cell lines Hs746T, EBC-1 and H1993 was measured by a celltiter-glo (CTG) method, and 50% inhibition concentration IC50 was calculated.
(§13) The compounds were determined on the selected cells, the solvent control was set and a total of 10 concentrations were detected, 2 replicates per concentration.
(§14) a) Cells in the logarithmic growth phase were harvested and counted by a […]. The cell viability was detected by a trypan blue exclusion method to ensure that the cell viability was over 90%.
(§15) b) The cell concentration was adjusted; 30 μL of cell suspension was added to a 384-well plate respectively.
(§16) c) Cells in a 384-well plate were incubated overnight at 37° C., 5% CO2 and 95% humidity.
(§17) a) 10 times of drug solution was prepared with the highest concentration of 10 mM, 10 concentrations and 3 times dilution, 10 μL of drug solution was added into each well of a 384-well plate inoculated with cells, and three multiple wells were arranged for each drug concentration. DMSO was the blank control.
(§18) b) The cells in the 384-well plate were incubated for a further 72 h at 37° C., 5% CO2 and 95% humidity before CTG analysis.
(§19) a) The CTG reagent was melted and the cell plate was equilibrated to room temperature for 30 min.
(§20) b) An equal volume of CTG solution was added to each well.
(§21) c) Cells were lysed by shaking on an orbital shaker for 5 minutes.
(§22) d) The cell plate was left at room temperature for 20 minutes to stabilize the luminescence signal.
(§23) e) The cold light value was read.
(§24) The data was analyzed by GraphPad Prism 8 software, and the dose-response curve was fitted with nonlinear S-curve regression, and the IC50 value was calculated therefrom.
(§25) Cell viability(%)=(Lumdrugs to be tested-Lumblank control)/(Lumcell control-Lumblank control)×100%.

MET D1228N = target: T3, MET D1228N (Homo sapiens, UniProt P08581, D1228N); assay: Kinase inhibition experiment (HTRF KinEASE-TK kit), mutant MET D1228N; type: biochemical; conditions: 10 concentrations, 3-fold dilution
T3 construct: purchased Signalchem M52-12IG
Experimental: as §1, §2, §3, §4, §5, §6, §7, §8, §9, §10

Hs746T cell line = assay: Cell proliferation inhibition experiment (CellTiter-Glo), Hs746T; type: cell-based; conditions: Homo sapiens, Hs 746T, CTG, 72 h
Experimental: as §11, §12, §13, §14, §15, §16, §17, §18, §19, §20, §21, §22, §23, §24, §25

EBC-1 cell line = assay: Cell proliferation inhibition experiment (CellTiter-Glo), EBC-1; type: cell-based; conditions: Homo sapiens, CTG, 72 h
Experimental: as §11, §12, §13, §14, §15, §16, §17, §18, §19, §20, §21, §22, §23, §24, §25

T3 sequence (P08581 25-1390 D1228N): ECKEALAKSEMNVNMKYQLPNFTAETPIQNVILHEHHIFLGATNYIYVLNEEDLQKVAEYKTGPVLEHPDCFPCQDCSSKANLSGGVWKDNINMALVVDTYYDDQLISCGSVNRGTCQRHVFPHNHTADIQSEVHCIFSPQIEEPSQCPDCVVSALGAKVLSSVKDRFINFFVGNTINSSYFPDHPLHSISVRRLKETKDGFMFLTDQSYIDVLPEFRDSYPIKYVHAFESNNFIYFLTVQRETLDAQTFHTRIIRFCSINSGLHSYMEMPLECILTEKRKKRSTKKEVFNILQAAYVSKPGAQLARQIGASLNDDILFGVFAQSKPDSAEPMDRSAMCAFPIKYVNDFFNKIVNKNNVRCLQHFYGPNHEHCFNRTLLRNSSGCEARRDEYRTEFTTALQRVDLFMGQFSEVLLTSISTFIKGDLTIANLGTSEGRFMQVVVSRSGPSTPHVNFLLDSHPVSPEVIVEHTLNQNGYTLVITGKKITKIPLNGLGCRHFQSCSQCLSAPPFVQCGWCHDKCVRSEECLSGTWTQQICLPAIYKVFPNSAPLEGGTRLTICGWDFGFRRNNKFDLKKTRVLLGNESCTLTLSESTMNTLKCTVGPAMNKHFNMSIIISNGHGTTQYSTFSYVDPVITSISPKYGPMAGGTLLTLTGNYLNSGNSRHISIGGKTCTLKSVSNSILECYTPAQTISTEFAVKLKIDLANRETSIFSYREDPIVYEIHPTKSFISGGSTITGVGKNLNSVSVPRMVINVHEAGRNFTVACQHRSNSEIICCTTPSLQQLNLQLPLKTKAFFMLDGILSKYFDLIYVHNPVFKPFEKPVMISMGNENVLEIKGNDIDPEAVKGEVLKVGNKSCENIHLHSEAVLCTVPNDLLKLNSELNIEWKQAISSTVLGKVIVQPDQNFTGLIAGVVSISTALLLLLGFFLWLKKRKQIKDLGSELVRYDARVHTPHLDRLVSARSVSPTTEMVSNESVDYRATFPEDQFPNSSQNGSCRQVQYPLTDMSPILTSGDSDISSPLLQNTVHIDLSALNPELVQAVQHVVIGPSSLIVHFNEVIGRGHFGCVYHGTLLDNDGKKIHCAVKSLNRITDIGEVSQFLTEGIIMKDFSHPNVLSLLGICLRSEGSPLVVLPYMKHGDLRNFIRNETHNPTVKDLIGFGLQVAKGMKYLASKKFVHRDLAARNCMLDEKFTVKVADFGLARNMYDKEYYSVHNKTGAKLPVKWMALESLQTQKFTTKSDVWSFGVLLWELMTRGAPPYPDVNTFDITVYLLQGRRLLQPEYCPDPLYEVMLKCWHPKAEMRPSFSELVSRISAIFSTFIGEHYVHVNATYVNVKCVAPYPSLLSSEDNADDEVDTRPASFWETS
T1 sequence (P08581 25-1390 F1200I): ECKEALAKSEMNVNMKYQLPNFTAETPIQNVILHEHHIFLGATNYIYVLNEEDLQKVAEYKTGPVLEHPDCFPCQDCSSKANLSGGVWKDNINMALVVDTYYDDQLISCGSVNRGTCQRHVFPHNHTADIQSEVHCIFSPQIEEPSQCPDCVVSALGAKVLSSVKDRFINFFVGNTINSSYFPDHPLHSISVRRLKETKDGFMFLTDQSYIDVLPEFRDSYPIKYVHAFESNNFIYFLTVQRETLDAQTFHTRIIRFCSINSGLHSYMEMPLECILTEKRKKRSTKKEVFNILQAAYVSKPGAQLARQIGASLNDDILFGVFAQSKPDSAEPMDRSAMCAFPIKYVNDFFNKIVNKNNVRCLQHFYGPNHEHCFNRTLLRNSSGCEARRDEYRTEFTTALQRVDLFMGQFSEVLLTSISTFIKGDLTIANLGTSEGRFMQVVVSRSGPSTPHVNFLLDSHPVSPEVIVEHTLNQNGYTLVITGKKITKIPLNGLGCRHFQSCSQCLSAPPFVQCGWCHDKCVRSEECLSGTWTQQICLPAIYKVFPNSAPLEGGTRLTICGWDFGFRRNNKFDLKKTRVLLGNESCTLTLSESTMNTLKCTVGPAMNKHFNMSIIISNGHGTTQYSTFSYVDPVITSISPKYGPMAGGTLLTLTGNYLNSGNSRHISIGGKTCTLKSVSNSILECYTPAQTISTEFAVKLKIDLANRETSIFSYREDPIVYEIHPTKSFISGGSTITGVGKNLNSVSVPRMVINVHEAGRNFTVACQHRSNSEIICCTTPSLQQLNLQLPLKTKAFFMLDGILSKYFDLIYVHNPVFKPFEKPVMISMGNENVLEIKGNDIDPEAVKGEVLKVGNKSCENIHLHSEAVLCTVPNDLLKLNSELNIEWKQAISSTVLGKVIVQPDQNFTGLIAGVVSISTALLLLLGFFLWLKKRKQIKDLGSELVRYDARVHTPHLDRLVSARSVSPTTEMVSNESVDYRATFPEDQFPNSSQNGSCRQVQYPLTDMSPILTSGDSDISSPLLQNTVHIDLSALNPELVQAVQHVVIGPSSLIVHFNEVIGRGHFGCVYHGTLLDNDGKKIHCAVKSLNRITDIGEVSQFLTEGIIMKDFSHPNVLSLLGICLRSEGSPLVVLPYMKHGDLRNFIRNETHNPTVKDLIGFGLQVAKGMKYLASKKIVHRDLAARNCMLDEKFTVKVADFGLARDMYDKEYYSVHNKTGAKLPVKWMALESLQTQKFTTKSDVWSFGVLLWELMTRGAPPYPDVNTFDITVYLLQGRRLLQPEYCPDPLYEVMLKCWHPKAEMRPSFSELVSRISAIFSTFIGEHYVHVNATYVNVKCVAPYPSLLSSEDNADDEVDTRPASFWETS
T2 sequence (P08581 25-1390): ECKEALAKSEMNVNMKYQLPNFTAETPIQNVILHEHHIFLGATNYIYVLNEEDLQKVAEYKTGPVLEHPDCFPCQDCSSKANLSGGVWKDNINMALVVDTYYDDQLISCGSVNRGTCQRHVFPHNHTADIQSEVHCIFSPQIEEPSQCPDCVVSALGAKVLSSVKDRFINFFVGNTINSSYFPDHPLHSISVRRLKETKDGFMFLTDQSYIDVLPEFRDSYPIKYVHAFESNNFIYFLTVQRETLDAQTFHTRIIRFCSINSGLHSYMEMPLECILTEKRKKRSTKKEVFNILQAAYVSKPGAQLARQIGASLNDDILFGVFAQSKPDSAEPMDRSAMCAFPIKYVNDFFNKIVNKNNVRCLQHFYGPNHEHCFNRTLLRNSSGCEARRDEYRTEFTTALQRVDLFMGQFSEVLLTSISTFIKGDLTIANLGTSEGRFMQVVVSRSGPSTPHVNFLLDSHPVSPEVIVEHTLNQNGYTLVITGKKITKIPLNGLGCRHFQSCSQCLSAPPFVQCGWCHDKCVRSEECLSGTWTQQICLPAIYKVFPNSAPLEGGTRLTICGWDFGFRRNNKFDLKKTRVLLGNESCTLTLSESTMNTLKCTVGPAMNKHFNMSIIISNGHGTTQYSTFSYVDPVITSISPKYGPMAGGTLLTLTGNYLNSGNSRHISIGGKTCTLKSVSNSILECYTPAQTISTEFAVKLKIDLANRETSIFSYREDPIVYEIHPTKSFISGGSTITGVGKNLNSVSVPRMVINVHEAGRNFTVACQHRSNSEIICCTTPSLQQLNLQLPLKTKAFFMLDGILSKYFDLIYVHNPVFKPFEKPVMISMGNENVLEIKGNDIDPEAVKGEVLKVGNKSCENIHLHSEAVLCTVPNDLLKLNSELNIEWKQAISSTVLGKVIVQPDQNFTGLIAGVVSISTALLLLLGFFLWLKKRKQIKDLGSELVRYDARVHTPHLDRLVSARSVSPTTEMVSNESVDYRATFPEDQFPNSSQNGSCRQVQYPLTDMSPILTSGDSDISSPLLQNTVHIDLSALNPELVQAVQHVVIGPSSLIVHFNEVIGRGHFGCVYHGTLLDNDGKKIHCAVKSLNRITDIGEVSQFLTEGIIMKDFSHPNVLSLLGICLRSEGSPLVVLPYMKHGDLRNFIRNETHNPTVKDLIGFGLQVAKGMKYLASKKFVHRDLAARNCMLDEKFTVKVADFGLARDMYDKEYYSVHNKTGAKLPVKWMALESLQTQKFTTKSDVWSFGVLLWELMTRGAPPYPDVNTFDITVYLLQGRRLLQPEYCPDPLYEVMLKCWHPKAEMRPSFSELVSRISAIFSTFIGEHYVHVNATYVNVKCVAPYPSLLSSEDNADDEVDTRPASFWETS

Compound	IC50 (MET F1200I)	IC50 [1]	IC50 (H1993 cell line)	IC50 (MET D1228N)	IC50 (Hs746T cell line)	IC50 (EBC-1 cell line)
CC[C@H](CO)Nc1n[nH]c2nccc(Oc3ccc(NC(=O)c4cccc(-c5ccc(F)cc5)[n+]4[O-])cc3F)c12 [Final product 5]	10.8 nM	5.2 nM	33 nM	12.8 nM	–	–
CC(C)(O)CNc1n[nH]c2nccc(Oc3ccc(NC(=O)c4cccc(-c5ccc(F)cc5)[n+]4[O-])cc3F)c12 [Final product 10]	30.9 nM	4.7 nM	–	13.6 nM	29.1 nM	52.5 nM
O=C(Nc1ccc(Oc2ccnc3[nH]nc(NCC(O)CO)c23)c(F)c1)c1cccc(-c2ccc(F)cc2)[n+]1[O-] (stereo not drawn) [Final product 15]	6.5 nM	1.3 nM	39.4 nM	20.1 nM	21.6 nM	–
O=C(Nc1ccc(Oc2ccnc3[nH]nc(NCC(CO)CO)c23)c(F)c1)c1cccc(-c2ccc(F)cc2)[n+]1[O-] [Final product 17]	5.8 nM	1.4 nM	68.4 nM	7.5 nM	–	–
O=C(Nc1ccc(Oc2ccnc3[nH]nc(N4CC(CO)C4)c23)c(F)c1)c1cccc(-c2ccc(F)cc2)[n+]1[O-] [Final product 25]	4.3 nM	1.9 nM	62.2 nM	20.5 nM	–	–
O=C(Nc1ccc(Oc2ccnc3[nH]nc(N4CCC(F)(CO)CC4)c23)c(F)c1)c1cccc(-c2ccc(F)cc2)[n+]1[O-] [Final product 30]	5.5 nM	1.7 nM	50.2 nM	11.2 nM	–	–
CC(O)C1CCN(c2n[nH]c3nccc(Oc4ccc(NC(=O)c5cccc(-c6ccc(F)cc6)[n+]5[O-])cc4F)c23)CC1 (stereo not drawn) [Final product 31]	7.9 nM	3 nM	35 nM	40.7 nM	–	–
O=C(Nc1ccc(Oc2ccnc3[nH]nc(N4CCC[C@@H](CO)C4)c23)c(F)c1)c1cccc(-c2ccc(F)cc2)[n+]1[O-] [Final product 32]	10.1 nM	4.4 nM	30.6 nM	16.7 nM	–	–
Cc1ccc(C(=O)Nc2ccc(Oc3ccnc4[nH]nc(NCC5(O)CC5)c34)c(F)c2)[n+]([O-])c1-c1ccc(F)cc1 [Final product 70]	–	6.9 nM	12 nM	35.5 nM	24.4 nM	–
CC(O)C1CN(c2n[nH]c3nccc(Oc4ccc(NC(=O)c5cccc(-c6ccc(F)cc6)[n+]5[O-])cc4Cl)c23)C1 (stereo not drawn) [Final product 107]	12.3 nM	1.6 nM	76.9 nM	26.8 nM	–	–
O=C(Nc1ccc(Oc2ccnc3[nH]nc(N[C@H]4COC[C@@H]4O)c23)c(Cl)c1)c1ccc(Cl)c(-c2ccc(F)cc2)[n+]1[O-] [Final product 123]	10 nM	1 nM	–	30.1 nM	–	–
C[C@H](CO)Cn1ccc2ncnc(Oc3ccc(NC(=O)c4cccc(-c5ccc(F)cc5)[n+]4[O-])cc3F)c21 [Final product 169, (S)-2-((3-fluoro-4-((5-(3-hydroxy-2-methylpropyl)-5H-pyrrolo[3,2-d]pyrimidin-4-yl)oxy)phenyl)carbamoyl)-6-(4-fluorophenyl)pyridine 1-oxide]	2.1 nM	1.8 nM	–	6.9 nM	–	–
C[C@@H](CO)Cn1ccc2ncnc(Oc3ccc(NC(=O)c4cccc(-c5ccc(F)cc5)[n+]4[O-])cc3F)c21 [Final product 170, (R)-2-((3-fluoro-4-((5-(3-hydroxy-2-methylpropyl)-5H-pyrrolo[3,2-d]pyrimidin-4-yl)oxy)phenyl)carbamoyl)-6-(4-fluorophenyl)pyridine 1-oxide]	8.5 nM	4.2 nM	–	16.2 nM	–	–

Now from value to compound, other results behind:

IC50 (MET F1200I)	IC50 [1]	IC50 (H1993 cell line)	IC50 (MET D1228N)	Compound	IC50 (Hs746T cell line)	IC50 (EBC-1 cell line)
9.8 nM	18 nM	–	30.2 nM	O=C(Nc1ccc(Oc2ccnc3[nH]nc(N[C@H]4CC[C@@H](O)C4)c23)c(Cl)c1)c1ccc(F)c(-c2ccc(F)cc2)[n+]1[O-] [Final product 119]	–	–
14.5 nM	1.3 nM	–	17.6 nM	O=C(Nc1ccc(Oc2ccnc3[nH]nc(N[C@H]4COC[C@@H]4O)c23)c(Cl)c1)c1ccc(F)c(-c2ccc(F)cc2)[n+]1[O-] [Final product 120]	–	–
11.4 nM	4.3 nM	42.3 nM	19 nM	C[C@H](CO)Nc1n[nH]c2nccc(Oc3ccc(NC(=O)c4ccc(Cl)c(-c5ccc(F)cc5)[n+]4[O-])cc3Cl)c12 [Final product 121]	–	–
8.8 nM	0.6 nM	–	21.1 nM	Cc1ccc(C(=O)Nc2ccc(Oc3ccnc4[nH]nc(N[C@H]5COC[C@@H]5O)c34)c(Cl)c2)[n+]([O-])c1-c1ccc(F)cc1 [Final product 129]	–	–
28.3 nM	3.3 nM	–	15.5 nM	[2H]C([2H])([2H])c1ccc(C(=O)Nc2ccc(Oc3ccnc4[nH]nc(N[C@H](C)CO)c34)c(Cl)c2)[n+]([O-])c1-c1ccc(F)cc1 [Final product 134]	–	–
15.3 nM	4.5 nM	31.1 nM	18.5 nM	C[C@H](CO)Nc1n[nH]c2nccc(Oc3ccc(NC(=O)c4ccc(OC(F)F)c(-c5ccc(F)cc5)[n+]4[O-])cc3Cl)c12 [Final product 139]	–	–
33 nM	1.9 nM	–	26.3 nM	C[C@H](CO)Nc1n[nH]c2nccc(Oc3ccc(NC(=O)c4ccc(OCC(F)F)c(-c5ccc(F)cc5)[n+]4[O-])cc3Cl)c12 [Final product 141]	–	–
33 nM	18 nM	–	45.1 nM	C[C@H](CO)Nc1n[nH]c2nccc(Oc3ccc(NC(=O)c4ccc(OCC(F)(F)F)c(-c5ccc(F)cc5)[n+]4[O-])cc3Cl)c12 [Final product 142]	–	–
13.2 nM	5.6 nM	–	27.4 nM	C[C@H](CO)Nc1n[nH]c2nccc(Oc3ccc(NC(=O)c4ccc(F)c(-c5ccc(F)cc5)[n+]4[O-])c(F)c3)c12 [Final product 155]	–	–
17.5 nM	1.7 nM	–	46.2 nM	C[C@H](CO)Nc1n[nH]c2nccc(Oc3cc(F)c(NC(=O)c4ccc(Cl)c(-c5ccc(F)cc5)[n+]4[O-])cc3F)c12 [Final product 157]	–	–
15.9 nM	2.5 nM	–	29.4 nM	C[C@H](CO)Nc1n[nH]c2nccc(Oc3cc(F)c(NC(=O)c4ccc(Cl)c(-c5ccc(F)cc5)[n+]4[O-])cc3Cl)c12 [Final product 158]	–	–
2 nM	3 nM	78.4 nM	14.8 nM	C[C@H](CO)Nc1n[nH]c2nccc(Oc3ccc(NC(=O)c4ccc(Cl)c(-c5ccc(F)cc5)[n+]4[O-])c(F)c3)c12 [Final product 159]	–	–
12.9 nM	5.7 nM	–	19.6 nM	Cc1ccc(C(=O)Nc2ccc(Oc3ccnc4[nH]nc(N[C@H](C)CO)c34)cc2F)[n+]([O-])c1-c1ccc(F)cc1 [Final product 160]	–	–
